US20090324513A1, “Process for Producing Chlorinated Sucrose” (Pharmed Medicare Private Limited, priority 2004, published 2009)
“And” between values parts separate entries of the source, which are not always exact repeats. Identical values can stand only once.

Experiments:
[1] = Particle size evaluated in Microtrac-X100 equipment; type: physicochemical; conditions: for Particle size: other batches, ethyl acetate crystallization
Procedure: The particle size was evaluated in Microtrac—X100 equipment.

[2] = Solubility test of product batch; type: physicochemical; conditions: result against specification: Soluble in ethanol and water. Slightly soluble in ethyl acetate

OC[C@H]1O[C@H](O[C@]2(CCl)O[C@H](CCl)[C@@H](O)[C@@H]2O)[C@H](O)[C@@H](O)[C@H]1Cl [PP 02]
Particle size ([1]; 90% of particles): 90% ≦ 9.125 microns

OC[C@H]1O[C@H](O[C@]2(CCl)O[C@H](CCl)[C@@H](O)[C@@H]2O)[C@H](O)[C@@H](O)[C@H]1Cl [PP 03]
Particle size ([1]; 90% of particles): 90% ≦ 9.165 microns

OC[C@H]1O[C@H](O[C@]2(CCl)O[C@H](CCl)[C@@H](O)[C@@H]2O)[C@H](O)[C@@H](O)[C@H]1Cl [PRO 01]
Particle size ([1]; 90% of particles): 90% ≦ 9.035 microns

OC[C@H]1O[C@H](O[C@]2(CCl)O[C@H](CCl)[C@@H](O)[C@@H]2O)[C@H](O)[C@@H](O)[C@H]1Cl [PRO 05]
Particle size ([1]; 90% of particles): 90% ≦ 9.183 microns

OC[C@H]1O[C@@H](O[C@]2(CCl)O[C@H](CCl)[C@@H](O)[C@@H]2O)[C@H](O)[C@@H](O)[C@H]1Cl [conventional crystallization batch, 1′,6′-Dichloro-1′,6′-Dideoxy-â-D-Fructo-Furanosyl-4-Chloro-4-Deoxy-â-D-Galactopyranoside]
individual crystal particle size at percentage ([1]; 10% of particles): 0.956 microns
individual crystal particle size at percentage ([1]; 20% of particles): 1.541 microns
individual crystal particle size at percentage ([1]; 30% of particles): 2.093 microns
individual crystal particle size at percentage ([1]; 40% of particles): 2.605 microns
individual crystal particle size at percentage ([1]; 50% of particles): 3.274 microns
individual crystal particle size at percentage ([1]; 60% of particles): 4.236 microns
individual crystal particle size at percentage ([1]; 70% of particles): 5.311 microns
individual crystal particle size at percentage ([1]; 80% of particles): 6.615 microns
individual crystal particle size at percentage ([1]; 90% of particles, listed as crystallized product): below 9.185 microns and 9.185 microns
individual crystal particle size at percentage ([1]; 95% of particles): 11.51 microns
Solubility [2]: Complies
